From patent US20150252048A1, “SUBSTITUTED N-(3-PYRIMIDIN-4-YL)PHENYL)ACRYLAMIDE ANALOGS AS TYROSINE RECEPTOR KINASE BTK INHIBITORS” (UNIVERSITY OF UTAH RESEARCH FOUNDATION, priority 2012, published 2015)
Like-named read-outs stand apart in the source and are kept apart here.

Legend:
BTK = BTK (Homo sapiens, UniProt Q06187); test: Specific kinase IC50 assay; assay type: biochemical; details: 1 μM ATP, 10-dose, duplicate
Protocol: In addition, the compound IC50 was determined in six specific kinase assays. The kinases that the compound was assayed against were as follows: BMX/ETK, BTK, EGFR (T790M), ERBB4/HER4, JAK3, and TEC. The assays were carried out in the presence of 1 μM ATP and were conducted in a 10-dose format in duplicate with three-fold serial dilutions starting at 10 μM. The calculated IC50s are shown in Table IX, and representative dose response curves from these assays are shown in FIG. 5 (Panels A: BMX/ETK kinase assay; Panel B: BTK kinase assay; Panel C: EGFR (T790M) kinase assay; Panel D: ERBB4/HER4 kinase assay; Panel E: JAK3 kinase assay; and Panel F: TEC kinase assay). The data in Figure show the individual assay duplicate assay results a line fit to the data; 100% activity is the activity in the […] of test compound. […].

Microsomal stability = assay type: in vitro ADME, mouse; details: for Compound Remaining: mouse microsomes 0.5 mg protein/mL, 1 μM; for half-life at 1 μM: mouse, microsomes
Protocol: Data were also obtained for the stability of Compound 3 when incubated with a microsomal preparation. Drug metabolism can occur, at least in part, in cellular microsomes, and thus the assay assesses the stability of drug to metabolic modification. The concentration of compound 3 was 1 μM in the assay system and the indicated microsomes were present at 0.5 mg total protein per milliliter. The concentration of intact drug was determined at the indicated timepoints using a LC-MS/MS assay. The enzyme activity of the microsomes used in this study were assessed using a positive control, testosterone.

JAK3 = target: T1, JAK3 (Homo sapiens, UniProt P52333); test: Specific kinase IC50 assay; assay type: biochemical; details: 1 μM ATP, 10-dose, duplicate
T1 sequence (P52333 1-1124): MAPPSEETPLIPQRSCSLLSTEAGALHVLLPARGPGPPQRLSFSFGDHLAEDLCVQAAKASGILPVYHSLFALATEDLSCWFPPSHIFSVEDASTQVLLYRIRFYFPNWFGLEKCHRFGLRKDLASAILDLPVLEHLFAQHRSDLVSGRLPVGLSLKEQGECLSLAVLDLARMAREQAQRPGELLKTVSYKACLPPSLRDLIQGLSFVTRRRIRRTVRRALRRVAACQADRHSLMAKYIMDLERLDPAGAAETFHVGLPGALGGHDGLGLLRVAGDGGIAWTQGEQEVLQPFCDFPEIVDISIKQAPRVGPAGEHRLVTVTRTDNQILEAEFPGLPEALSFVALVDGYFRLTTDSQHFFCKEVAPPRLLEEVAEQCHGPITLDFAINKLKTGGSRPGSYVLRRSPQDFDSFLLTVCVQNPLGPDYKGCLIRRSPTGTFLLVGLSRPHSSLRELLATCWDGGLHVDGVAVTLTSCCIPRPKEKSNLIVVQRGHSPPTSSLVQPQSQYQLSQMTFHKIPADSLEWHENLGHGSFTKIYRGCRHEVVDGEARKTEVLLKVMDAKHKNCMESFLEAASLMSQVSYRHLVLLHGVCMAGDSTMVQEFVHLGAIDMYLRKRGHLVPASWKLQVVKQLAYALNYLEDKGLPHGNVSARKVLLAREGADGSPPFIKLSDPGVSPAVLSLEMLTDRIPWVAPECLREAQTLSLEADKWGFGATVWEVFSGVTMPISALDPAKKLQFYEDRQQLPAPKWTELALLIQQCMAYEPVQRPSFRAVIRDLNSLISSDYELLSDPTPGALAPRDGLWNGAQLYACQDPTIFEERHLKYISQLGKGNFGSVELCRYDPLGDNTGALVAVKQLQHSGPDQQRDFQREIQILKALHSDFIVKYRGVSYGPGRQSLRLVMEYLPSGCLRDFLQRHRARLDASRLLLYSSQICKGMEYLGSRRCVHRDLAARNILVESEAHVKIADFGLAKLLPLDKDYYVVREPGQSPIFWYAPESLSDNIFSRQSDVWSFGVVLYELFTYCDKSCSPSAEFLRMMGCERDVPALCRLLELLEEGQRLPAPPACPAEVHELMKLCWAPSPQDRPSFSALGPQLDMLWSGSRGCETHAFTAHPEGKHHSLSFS
Protocol: (§1) The assays were carried out in the presence of 1 μM ATP and were conducted in a 10-dose format in duplicate with three-fold serial dilutions starting at 10 μM.

BMX/ETK = target: T2, BMX/ETK (Homo sapiens, UniProt P51813); test: Specific kinase IC50 assay; assay type: biochemical; details: 1 μM ATP, 10-dose, duplicate
T2 sequence (P51813 1-675): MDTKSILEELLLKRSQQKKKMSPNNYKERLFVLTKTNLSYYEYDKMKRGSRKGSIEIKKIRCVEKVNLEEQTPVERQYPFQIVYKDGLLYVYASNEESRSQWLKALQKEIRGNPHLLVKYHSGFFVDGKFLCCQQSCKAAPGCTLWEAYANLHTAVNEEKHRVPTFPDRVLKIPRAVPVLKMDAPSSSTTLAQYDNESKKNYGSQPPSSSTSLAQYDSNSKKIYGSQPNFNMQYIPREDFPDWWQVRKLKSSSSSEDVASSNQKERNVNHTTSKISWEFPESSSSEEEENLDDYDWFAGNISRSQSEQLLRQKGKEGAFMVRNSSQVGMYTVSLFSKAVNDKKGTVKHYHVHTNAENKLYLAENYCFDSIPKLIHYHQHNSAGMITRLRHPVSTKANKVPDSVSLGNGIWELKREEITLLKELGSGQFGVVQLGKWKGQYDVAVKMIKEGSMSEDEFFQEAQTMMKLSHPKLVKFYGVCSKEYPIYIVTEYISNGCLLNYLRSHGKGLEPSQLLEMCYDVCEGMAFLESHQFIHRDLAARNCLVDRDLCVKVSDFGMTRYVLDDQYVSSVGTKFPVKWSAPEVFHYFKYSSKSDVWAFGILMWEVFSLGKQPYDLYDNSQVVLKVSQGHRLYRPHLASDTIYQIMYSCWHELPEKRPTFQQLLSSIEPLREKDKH
Protocol: as §1

EGFR (T790M) = EGFR (T790M) (Homo sapiens, UniProt P00533, T790M); test: Specific kinase IC50 assay; assay type: biochemical; details: 1 μM ATP, 10-dose, duplicate
Sequence of EGFR (T790M) (P00533 25-1210 T790M, species assumed): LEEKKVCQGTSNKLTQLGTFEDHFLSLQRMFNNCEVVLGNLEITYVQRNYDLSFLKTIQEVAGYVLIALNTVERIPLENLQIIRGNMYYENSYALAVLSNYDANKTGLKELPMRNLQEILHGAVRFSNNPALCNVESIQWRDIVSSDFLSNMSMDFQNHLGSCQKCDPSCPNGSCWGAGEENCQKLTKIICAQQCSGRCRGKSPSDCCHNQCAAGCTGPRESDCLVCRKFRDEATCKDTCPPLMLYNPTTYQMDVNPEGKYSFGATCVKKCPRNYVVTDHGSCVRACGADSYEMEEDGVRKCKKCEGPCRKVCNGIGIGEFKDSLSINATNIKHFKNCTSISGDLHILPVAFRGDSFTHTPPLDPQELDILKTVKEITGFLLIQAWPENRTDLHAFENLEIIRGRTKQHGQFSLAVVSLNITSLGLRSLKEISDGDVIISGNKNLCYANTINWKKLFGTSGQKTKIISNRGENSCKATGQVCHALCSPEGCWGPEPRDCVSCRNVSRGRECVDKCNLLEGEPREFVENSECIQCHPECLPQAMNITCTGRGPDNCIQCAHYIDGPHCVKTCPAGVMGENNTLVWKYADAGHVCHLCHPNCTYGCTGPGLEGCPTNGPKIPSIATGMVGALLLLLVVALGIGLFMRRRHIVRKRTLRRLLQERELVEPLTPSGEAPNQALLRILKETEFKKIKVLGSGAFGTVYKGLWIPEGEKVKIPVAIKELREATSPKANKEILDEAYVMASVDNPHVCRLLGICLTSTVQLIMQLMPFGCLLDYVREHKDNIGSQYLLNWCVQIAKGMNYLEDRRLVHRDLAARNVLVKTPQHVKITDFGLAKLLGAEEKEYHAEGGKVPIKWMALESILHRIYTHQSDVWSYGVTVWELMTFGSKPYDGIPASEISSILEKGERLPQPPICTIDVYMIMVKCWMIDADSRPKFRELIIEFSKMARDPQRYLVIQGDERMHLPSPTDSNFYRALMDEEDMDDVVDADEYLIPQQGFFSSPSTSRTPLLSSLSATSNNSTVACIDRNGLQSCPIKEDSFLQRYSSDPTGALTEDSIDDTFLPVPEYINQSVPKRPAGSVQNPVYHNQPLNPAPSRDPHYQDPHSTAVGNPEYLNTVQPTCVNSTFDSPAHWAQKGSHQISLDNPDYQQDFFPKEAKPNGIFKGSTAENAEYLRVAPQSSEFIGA
Protocol: as §1

451 kinase types = test: KINOMEscan Assay Panel broad kinase screen; assay type: binding, human; details: screen against 451 kinase types
Protocol: The kinase selectivity of a representative disclosed compound, compound 3 (N-(3-(6-((3-morpholinophenyl)amino)-1H-pyrazolo[3,4-d]pyrimidin-4-yl)phenyl)acrylamide), which corresponds to compound 3 in Table I, was evaluated in multiple kinase assays. A broad based screen was conducted against 451 kinase types using the KINOMEscan Assay Panel. The results were able to map 14 interactions with an S-Score(35)=0.03. The interactions are highlighted in FIG. 4 (panels A and B), and are indicated by the dark circles in the figure.

Sequence of BTK (Q06187 whole entry): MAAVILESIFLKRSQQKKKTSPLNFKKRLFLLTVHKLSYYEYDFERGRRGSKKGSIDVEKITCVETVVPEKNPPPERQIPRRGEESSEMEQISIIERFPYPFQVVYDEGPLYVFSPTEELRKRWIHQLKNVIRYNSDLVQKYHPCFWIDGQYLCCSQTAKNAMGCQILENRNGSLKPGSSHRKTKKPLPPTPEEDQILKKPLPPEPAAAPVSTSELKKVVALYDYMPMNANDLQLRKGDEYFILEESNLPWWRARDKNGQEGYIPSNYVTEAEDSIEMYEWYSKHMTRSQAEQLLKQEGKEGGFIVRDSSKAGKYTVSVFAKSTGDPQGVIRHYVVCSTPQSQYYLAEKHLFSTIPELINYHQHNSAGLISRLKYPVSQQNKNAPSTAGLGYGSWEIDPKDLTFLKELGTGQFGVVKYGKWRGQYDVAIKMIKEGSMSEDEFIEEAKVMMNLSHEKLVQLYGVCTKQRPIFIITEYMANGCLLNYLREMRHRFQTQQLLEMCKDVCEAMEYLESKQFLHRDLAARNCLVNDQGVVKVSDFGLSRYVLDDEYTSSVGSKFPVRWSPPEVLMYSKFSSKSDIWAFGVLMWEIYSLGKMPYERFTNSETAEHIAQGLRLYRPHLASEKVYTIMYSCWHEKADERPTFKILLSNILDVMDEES

IC50 (BTK): 12.3 nM
Compound Remaining (Microsomal stability; 0 min): 100 % of initial amount
Compound Remaining (Microsomal stability; 10 min): 24.3 % of initial amount
Compound Remaining (Microsomal stability; 20 min): 6.12 % of initial amount
Compound Remaining (Microsomal stability; 30 min): 1.62 % of initial amount
Compound Remaining (Microsomal stability; 60 min): 0.72 % of initial amount
microsomal CLint at 1 μM (Microsomal stability; mouse microsomes, read-out: CLinit (intrinsic clearance)): 160 µL/min/mg
half-life at 1 μM (Microsomal stability; mouse microsomes, expressed as < shortest incubation time, read-out: t1/2): < 10 min
half-life at 1 μM (Microsomal stability; mouse microsomes, read-out: t1/2, calculated half-life in parentheses): 8.6 min
IC50 (JAK3): 66.6 nM
IC50 (BMX/ETK): 9.26 nM
IC50 (EGFR (T790M)): 979 nM
Number of interactions mapped (451 kinase types): 14
S-Score(35) (451 kinase types): 0.03
Compound: C=CC(=O)Nc1cccc(-c2nc(Nc3cccc(N4CCOCC4)c3)nc3[nH]ncc23)c1 [Compound 3, N-(3-(6-((3-morpholinophenyl)amino)-1H-pyrazolo[3,4-d]pyrimidin-4-yl)phenyl)acrylamide]
